Reference: ChEMBL document CHEMBL1201862, “PubChem BioAssay data set” (2004)
Activity calls are given as the source filed them.

How the values were obtained:
[1] = molecular target: T1, Heat shock factor protein 1 (Mus musculus, UniProt P38532); assay: decrease of HSF1-responsive luciferase luminescence – cell-based, NIH3T3, dose retest, confirmation (AID 2382); format: functional;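 note: NIH3T3 fibroblasts with HSF1-driven luciferase reporter stressed by proteasome inhibitor MG132; luminescence from HSF1-driven luciferase expression after 8 hours of MG132 stress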
T1 sequence (P38532 whole entry): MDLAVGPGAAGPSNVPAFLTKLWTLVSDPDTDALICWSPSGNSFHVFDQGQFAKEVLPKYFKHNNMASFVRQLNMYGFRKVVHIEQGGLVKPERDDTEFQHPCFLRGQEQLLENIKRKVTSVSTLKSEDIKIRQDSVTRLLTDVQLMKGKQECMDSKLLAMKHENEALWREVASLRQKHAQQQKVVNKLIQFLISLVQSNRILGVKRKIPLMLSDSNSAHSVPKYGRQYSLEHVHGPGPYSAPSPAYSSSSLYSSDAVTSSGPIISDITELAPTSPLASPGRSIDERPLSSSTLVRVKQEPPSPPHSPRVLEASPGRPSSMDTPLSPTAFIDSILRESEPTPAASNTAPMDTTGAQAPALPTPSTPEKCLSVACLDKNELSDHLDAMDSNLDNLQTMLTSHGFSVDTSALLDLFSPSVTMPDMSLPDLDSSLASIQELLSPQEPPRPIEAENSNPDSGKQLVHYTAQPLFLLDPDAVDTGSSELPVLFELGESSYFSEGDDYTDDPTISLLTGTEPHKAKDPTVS

Cytochrome P450 3A4 = Cytochrome P450 3A4 (Homo sapiens, UniProt P08684);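 note: CYP3A4 tested as one member of a cytochrome P450 panel screen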
Chain of Cytochrome P450 3A4 (P08684 whole entry): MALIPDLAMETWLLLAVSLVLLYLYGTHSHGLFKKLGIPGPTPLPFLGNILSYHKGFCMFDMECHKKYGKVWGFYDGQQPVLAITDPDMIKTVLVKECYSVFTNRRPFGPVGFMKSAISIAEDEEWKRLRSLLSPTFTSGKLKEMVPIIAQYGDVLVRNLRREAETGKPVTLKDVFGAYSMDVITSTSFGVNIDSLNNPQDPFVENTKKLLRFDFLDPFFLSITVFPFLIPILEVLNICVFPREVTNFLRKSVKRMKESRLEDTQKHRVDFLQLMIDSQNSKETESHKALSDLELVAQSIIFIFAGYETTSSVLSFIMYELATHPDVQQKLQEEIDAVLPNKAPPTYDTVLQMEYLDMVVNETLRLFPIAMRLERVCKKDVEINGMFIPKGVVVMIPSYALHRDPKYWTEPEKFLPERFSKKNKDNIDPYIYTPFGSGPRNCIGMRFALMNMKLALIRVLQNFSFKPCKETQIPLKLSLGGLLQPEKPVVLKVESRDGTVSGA

Cytochrome P450 2C9 = Cytochrome P450 2C9 (Homo sapiens, UniProt P11712)
Chain of Cytochrome P450 2C9 (P11712 whole entry): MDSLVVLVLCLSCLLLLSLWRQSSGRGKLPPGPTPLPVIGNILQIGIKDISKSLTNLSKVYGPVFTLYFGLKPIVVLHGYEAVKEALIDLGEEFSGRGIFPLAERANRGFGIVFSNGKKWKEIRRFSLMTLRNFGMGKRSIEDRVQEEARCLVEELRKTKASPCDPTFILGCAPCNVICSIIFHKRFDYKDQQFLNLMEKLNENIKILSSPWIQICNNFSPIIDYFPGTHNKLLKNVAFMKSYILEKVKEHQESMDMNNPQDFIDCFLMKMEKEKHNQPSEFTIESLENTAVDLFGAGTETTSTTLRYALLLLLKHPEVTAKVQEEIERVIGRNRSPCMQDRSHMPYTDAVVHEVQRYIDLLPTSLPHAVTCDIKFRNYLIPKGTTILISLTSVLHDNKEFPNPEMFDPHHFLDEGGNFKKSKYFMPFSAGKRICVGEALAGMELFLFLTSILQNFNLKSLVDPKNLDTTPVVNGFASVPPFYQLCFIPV

[2] = NIH3T3 cell viability loss – ATP luminescence, mouse fibroblasts, counter-screen, dose response (AID 2010); format: functional, cell-based;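 note: cells exposed to compound for about 90 hours before reading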
[3] = Trypanosoma cruzi growth suppression in host cells – NIH3T3 host cells, beta-gal luminescence, confirmation (AID 2044); format: functional, cell-based;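 note: intracellular parasites grown in NIH/3T3 mouse fibroblasts as host cells; luminescent beta-galactosidase reporter signal from transgenic T. cruzi replicating inside host cells; inhibitors lower the luminescence signal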
INS1 = assay: INS-1E survival protection against cytokine death – cell-based, luminescence, retest, dose response (AID 449756); format: functional; conditions: Rattus norvegicus;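 note: cell death triggered by IL-1 beta plus TNF-alpha plus IFN-gamma mixture; protective hits raise ATP signal compared with cytokine alone wells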
Cytochrome P450 1A2 = molecular target: T2, Cytochrome P450 1A2 (Homo sapiens, UniProt P05177);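 note: PubChem cytochrome P450 panel assay, CYP1A2 panel member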
T2 sequence (P05177 whole entry): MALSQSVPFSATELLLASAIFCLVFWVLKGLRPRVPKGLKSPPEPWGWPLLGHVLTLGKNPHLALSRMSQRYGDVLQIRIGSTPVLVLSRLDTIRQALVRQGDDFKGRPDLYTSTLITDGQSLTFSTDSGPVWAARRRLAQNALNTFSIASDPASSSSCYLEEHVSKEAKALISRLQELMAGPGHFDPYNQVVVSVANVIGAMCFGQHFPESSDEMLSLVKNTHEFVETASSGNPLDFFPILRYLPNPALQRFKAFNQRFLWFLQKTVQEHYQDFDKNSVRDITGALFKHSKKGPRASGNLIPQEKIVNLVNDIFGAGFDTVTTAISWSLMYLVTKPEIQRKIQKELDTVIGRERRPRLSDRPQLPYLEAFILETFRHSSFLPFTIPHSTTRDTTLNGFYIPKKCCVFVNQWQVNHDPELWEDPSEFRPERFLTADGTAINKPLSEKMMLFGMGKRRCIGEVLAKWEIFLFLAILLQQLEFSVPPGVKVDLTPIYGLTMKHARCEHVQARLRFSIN

Cytochrome P450 2C19 = Cytochrome P450 2C19 (Homo sapiens, UniProt P33261); assay: Cytochrome panel assay with activity outcomes. Panel member name: p450-cyp2c19 Compounds with AC50 equal or less than 10 uM are considered active; format: functional
Chain of Cytochrome P450 2C19 (P33261 whole entry): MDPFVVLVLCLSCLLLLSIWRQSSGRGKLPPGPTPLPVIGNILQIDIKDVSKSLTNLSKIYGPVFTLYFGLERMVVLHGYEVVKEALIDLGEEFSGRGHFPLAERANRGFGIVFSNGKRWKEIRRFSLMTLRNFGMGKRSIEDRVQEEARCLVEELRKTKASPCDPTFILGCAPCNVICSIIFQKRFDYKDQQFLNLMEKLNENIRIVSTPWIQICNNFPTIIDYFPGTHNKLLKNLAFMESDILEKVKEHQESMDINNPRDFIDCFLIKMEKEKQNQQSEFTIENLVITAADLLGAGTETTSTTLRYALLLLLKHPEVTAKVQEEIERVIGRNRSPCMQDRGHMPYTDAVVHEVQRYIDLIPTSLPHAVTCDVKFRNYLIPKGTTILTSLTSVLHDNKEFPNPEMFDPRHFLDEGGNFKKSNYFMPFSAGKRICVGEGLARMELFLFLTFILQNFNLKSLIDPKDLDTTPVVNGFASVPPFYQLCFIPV

[4] = Luminescence Cell-Based Dose Response HTS to Identify Activators of Luciferase Translation or Activity in H4 […] Cells. [Related pubchem assays: 1829 (Project Summary), 1814 (Primary HTS)]; format: functional
H4 = assay: Luminescence Cell-Based Dose Response HTS to Identify Activators of 5'UTR Stem-Loop Driven Prion Protein mRNA Translation in H4 Neuroglioblastoma Cells. [Related pubchem assays: 1829 (Project Summary), 1814 (Primary HTS)]; format: functional; conditions: Homo sapiens
[5] = molecular target: T3, Rac GTPase-activating protein 1 (Homo sapiens, UniProt Q9H0H5); assay: blockers of MgcRacGAP-driven Rac1 GTP hydrolysis – biochemical, ADP Hunter fluorescence, primary and confirmatory, confirmation (AID 624330); format: functional
T3 sequence (Q9H0H5 whole entry): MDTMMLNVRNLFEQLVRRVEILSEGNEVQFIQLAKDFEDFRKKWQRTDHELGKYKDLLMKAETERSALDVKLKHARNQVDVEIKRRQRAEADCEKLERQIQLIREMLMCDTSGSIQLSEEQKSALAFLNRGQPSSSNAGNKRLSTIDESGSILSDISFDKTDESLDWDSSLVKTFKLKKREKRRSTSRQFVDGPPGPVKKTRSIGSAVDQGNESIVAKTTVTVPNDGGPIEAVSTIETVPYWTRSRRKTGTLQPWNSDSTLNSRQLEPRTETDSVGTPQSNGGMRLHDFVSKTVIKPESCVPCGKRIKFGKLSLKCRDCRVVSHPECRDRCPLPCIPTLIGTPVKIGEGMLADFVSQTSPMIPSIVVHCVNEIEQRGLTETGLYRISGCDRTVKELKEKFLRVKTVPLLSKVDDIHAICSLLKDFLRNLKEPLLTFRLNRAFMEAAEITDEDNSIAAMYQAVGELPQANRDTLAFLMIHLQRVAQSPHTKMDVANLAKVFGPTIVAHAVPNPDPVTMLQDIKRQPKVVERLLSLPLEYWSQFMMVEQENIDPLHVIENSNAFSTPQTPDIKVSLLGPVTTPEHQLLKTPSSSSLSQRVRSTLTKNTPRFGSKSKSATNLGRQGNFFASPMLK

**Q.** For `O=S(=O)(Nc1ccc2c(c1)OCCO2)c1cccc2nsnc12`, which EC50 [1] is on record?
**A.** 4.32 µM (active)

**Q.** With `CCOc1ccc(OCC)c(-c2c(=O)n(OCc3ccc(C(C)(C)C)cc3)c3ccccc3[n+]2[O-])c1` as the compound, how does the AC50 (Cytochrome P450 3A4) read?
**A.** 12.6 µM (inconclusive)

**Q.** Which AC50 (Cytochrome P450 2C9) does the source give for `COc1cc(OC)cc(C(=O)NC(=S)Nc2ccc(Cl)c(C(=O)O)c2)c1` here?
**A.** 12.6 µM (inconclusive)

**Q.** What does the source list for `CC(=O)/C=C1\N(C)c2ccc(C)cc2C1(C)C`?
**A.** EC50 [2]: > 60 µM (not active); EC50 [3]: 1.93 µM (active); AC50 (INS1): 5.32 µM (active)

**Q.** What does the source list for `O=C1C2CCCN2C(c2ccccc2F)N1c1ccc(Cl)cc1` (configuration not stated)?
**A.** AC50 (Cytochrome P450 1A2): 2 µM (inconclusive); AC50 (Cytochrome P450 2C9): 39.8 µM (inconclusive); AC50 (Cytochrome P450 3A4): 14.1 µM (inconclusive)

**Q.** For `CCOC(=O)C1C(=O)OC(C)(C)C1C(C)C(=O)c1ccc(C)cc1` (configuration not stated), which EC50 [1] is on record?
**A.** > 195 µM (not active)

**Q.** Which AC50 (Cytochrome P450 2C19; read-out: AC50) does the source give for `O=[N+]([O-])c1ccc2c(c1)N=C1O[C@H](c3c[nH]c4ccc(COc5ccccc5)cc34)C(O)=C1N2` here?
**A.** 3.16 µM (inconclusive)

**Q.** What about the AC50 (Cytochrome P450 3A4) of the same compound?
**A.** 3.16 µM (inconclusive)

**Q.** With `Fc1ccc(C(OCCN2CCN(C/C=C\c3ccccc3)CC2)c2ccc(F)cc2)cc1` as the compound, how does the AC50 (Cytochrome P450 1A2) read?
**A.** 31.6 µM (inconclusive)

**Q.** And the AC50 (Cytochrome P450 3A4)?
**A.** 15.8 µM (inconclusive)

**Q.** With `CN(C)c1ccc(NC(S)=NC23CC4CC(CC(C4)C2)C3)cc1` as the compound, how does the EC50 [4] read?
**A.** 20.6 µM (active)

**Q.** What about the AC50 (INS1) of the same compound?
**A.** 83.2 µM (active)

**Q.** And the EC50 (H4)?
**A.** 17.1 µM (active)

**Q.** For `O=C(CC1C(=O)NCCN1Cc1ccc(-c2ccccc2)cc1)NC1CCC1` (configuration not stated), which AC50 (INS1) is on record?
**A.** > 260 µM (inactive)

**Q.** With `Cc1ccc(NC(=O)NC(=O)CN2CCN(c3ccc(O)cc3)CC2)c(C)c1` as the compound, how does the EC50 [1] read?
**A.** > 195 µM (not active)

**Q.** What about the IC50 [5] of the same compound?
**A.** 64.9 µM (active)

**Q.** For `COc1cccc(Cn2c(=O)c(CCc3ccccc3)nc3cnc(N(C)C)nc32)c1`, which AC50 (Cytochrome P450 3A4) is on record?
**A.** 2.51 µM (inconclusive)

**Q.** For `O=C(COc1ccc(F)cc1)Nc1cc(Cl)ccc1-n1cncn1`, which EC50 [1] is on record?
**A.** > 195 µM (not active)

**Q.** For `Cc1c(NC(=O)C23CC4CC(CC(C)(C4)C2)C3)c(=O)n(-c2ccccc2)n1C`, which AC50 (Cytochrome P450 2C19) is on record?
**A.** inconclusive

**Q.** And the AC50 (Cytochrome P450 3A4)?
**A.** 31.6 µM (inconclusive)

**Q.** Which AC50 (Cytochrome P450 2C9) does the source give for `COc1ccc(C(=O)N/C(=C/c2cccs2)C(=O)NCCCn2ccnc2)cc1OC` here?
**A.** 5.01 µM (inconclusive)

**Q.** What about the AC50 (Cytochrome P450 2C19; read-out: AC50) of the same compound?
**A.** 8.91 µM (inconclusive)

**Q.** For `CC(C)(C)C(=O)/C=C/c1ccc(Oc2ccccc2)cc1`, which EC50 [1] is on record?
**A.** > 195 µM (not active)

**Q.** For `O=C1C(/C=C(\O)c2ccccc2)=NCC2c3ccccc3CCN12` (configuration not stated), which EC50 [4] is on record?
**A.** 0.491 µM (active)

**Q.** What about the EC50 (H4) of the same compound?
**A.** 8.18 µM (active)

**Q.** For `CN1N=C(C(C)(C)C)CS/C1=N/c1ccccc1`, which AC50 (INS1) is on record?
**A.** > 260 µM (inactive)

**Q.** For `O=[N+]([O-])c1ccc2nc(N3CCNCC3)ccc2c1` [6-NITROQUIPAZINE], which AC50 (Cytochrome P450 2C19) is on record?
**A.** inconclusive

**Q.** What about the AC50 (Cytochrome P450 3A4) of the same compound?
**A.** 10 µM (inconclusive)
